Data as given in patent US9708336B2, “Metallo-beta-lactamase inhibitors” (priority 2014, dated 2017).
Where two headings read alike, the source gives them in different places.

Tests used:
VIM-1 = VIM-1 (Pseudomonas aeruginosa (strain ATCC 15692 / DSM 22644 / CIP 104116 / JCM 14847 / LMG 12228 / 1C / PRS 101 / PAO1), UniProt A0A0F7KYQ8); assay: Enzyme activity: determination of IC50, fluorescence assay with CCF2-FA substrate (VIM-1); type: biochemical
[1] = system: Escherichia coli expressing NDM-1 (CLB30016); assay: Antibiotic potentiation activity: synergistic concentration (MITC95) with imipenem, OD600 growth; type: cell-based; conditions: for Escherichia coli expressing NDM-1 (CLB 30016) MITC95: concentration giving 95% inhibition of bacterial growth
Method: (§1) Antibiotic Potentiation Activity: Determination of Synergistic Concentration
(§2) The bacterial strains tested included the clinical strains Escherichia coli expressing NDM-1 (CLB30005, CLB30016), Serratia marcescens expressing IMP-1 (CL5741), and Klebsiella pneumoniae expressing VIM-1 (IHMA599644) Inhibitor activity was measured in the presence and absence of imipenem in a 384-well microplate.
(§3) The clinical strains CLB30016, CL5741 and IHMA599644 were grown on trypticase soy agar containing 5% sheep's blood. The clinical strain CLB30005 was grown on Mueller Hinton broth agar containing 8 ug/ml imipenem. The bacteria on agar plates were incubated at 35° C. with humidity overnight. The following day, individual colonies from each clinical strain were picked and resuspended in 5 ml saline to attain an OD600 of 0.14, 0.11, 0.15 and 0.13, for CLB30005, CLB30016, CL5741 and IHMA599644, respectively. These were further diluted 1:100 into 1.1×CAMHB and used to inoculate the test wells as described below.
(§4) Imipenem in 10 mM 3-(N-morpholino)propanesulfonic acid (MOPS, pH 7) was stored in single use aliquots at −80° C. […] On the day of the assay, 4 μl of antibiotic was added to 45 ul of bacteria followed by 1 μl of test compound and mixed by pipetting and with an orbital shaker. The concentration of antibiotic used in the assay was 4 μg/ml, or optionally 1 μg/ml. Microplates were covered and incubated at 35° C. for 22 hours to 24 hours. At the end of the incubation, absorbance was determined using a spectrophotometer.

[2] = system: Klebsiella pneumoniae expressing VIM-1 (IHMA599644); assay: as above; type: cell-based; conditions: for Klebsiella pneumoniae expressing VIM-1 (IHMA 599644) MITC95: concentration giving 95% inhibition of bacterial growth
Method: as §1, §2, §3, §4

[3] = system: Serratia marcescens expressing IMP-1 (CL5741); assay: as above; type: cell-based; conditions: for Serratia marcescens expressing IMP-1 (CL5741) MITC95: concentration giving 95% inhibition of bacterial growth
Method: as §1, §2, §3, §4

NDM-1 = NDM-1 (Klebsiella pneumoniae, UniProt C7C422); assay: biochemical; type: biochemical; conditions: read-out: NDM-1 IC50
Method: Enzyme Activity: Determination of IC50
(§5) The Class B enzyme activities were measured in the presence of the test inhibitor in a fluorescence assay against a commercially available substrate consisting of a cephalosporin core linking 7-hydroxycoumarin to fluorescein (CCF2-FA). The enzyme (NDM-1, IMP-1 or VIM-1) and the substrate were diluted in 100 mM KH2PO4 buffer (pH 7) containing 0.005% Tween-20 and 10 μM ZnSO4. […] The test inhibitor was dissolved in dimethylsulfoxide and diluted 1:50 in the assay, resulting in a final concentration range of 20 uM to 0.00063 uM. In a 384-well microplate, the test inhibitor was incubated with the metallo-β-lactamase enzyme and the substrate for 2 hours at 25° C. Fluorescence at 460 nm following excitation at 405 nm was measured. The IC50 value was determined from semi-logarithmic plots of enzyme inhibition versus inhibitor concentration, with a curve generated using a 4-parameter fit.

IMP-1 = IMP-1 (Serratia marcescens, UniProt P52699); assay: biochemical; type: biochemical; conditions: read-out: IMP-1 IC50
Method: Enzyme Activity: Determination of IC50
as §5

[4] = VIM-1 enzyme, CCF2-FA substrate, read-out: VIM-1 IC50
[5] = (CLB30016, NDM-1), 95% growth inhibition
[6] = Klebsiella pneumoniae IHMA599644 (VIM-1), 95% growth inhibition
[7] = Serratia marcescens CL5741 (IMP-1), 95% growth inhibition
[8] = fluorescence assay with CCF2-FA substrate

Sequence of IMP-1 (P52699 whole entry, looked up): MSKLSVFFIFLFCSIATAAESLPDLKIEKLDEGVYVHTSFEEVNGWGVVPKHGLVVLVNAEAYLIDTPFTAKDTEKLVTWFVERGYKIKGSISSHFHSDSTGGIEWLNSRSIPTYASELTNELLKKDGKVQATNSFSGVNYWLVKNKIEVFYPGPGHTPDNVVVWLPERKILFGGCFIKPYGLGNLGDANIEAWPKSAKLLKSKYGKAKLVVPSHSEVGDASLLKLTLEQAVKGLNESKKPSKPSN
Sequence of NDM-1 (C7C422 whole entry, looked up, species assumed): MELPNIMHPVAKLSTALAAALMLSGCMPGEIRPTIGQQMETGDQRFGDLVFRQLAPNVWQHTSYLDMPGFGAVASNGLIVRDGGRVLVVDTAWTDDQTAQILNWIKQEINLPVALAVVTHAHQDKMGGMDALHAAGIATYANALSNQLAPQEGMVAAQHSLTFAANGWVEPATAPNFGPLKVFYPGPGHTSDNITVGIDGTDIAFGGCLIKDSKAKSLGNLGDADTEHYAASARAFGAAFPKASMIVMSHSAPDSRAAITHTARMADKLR

Row | SMILES | IC50 (VIM-1; [4]) [nM] | Escherichia coli MITC95 [1, 5] [µM] | Klebsiella pneumoniae MITC95 [2, 6] [µM] | Serratia marcescens MITC95 [3, 7] [µM] | further results
1 | CC(C)(C)Cc1ccc(-c2cccc3sc(N)nc23)c(-c2nn[nH]n2)c1S(N)(=O)=O [Example 537, 3-(2-Aminobenzo[d]thiazol-4-yl)-6-neopentyl-2-(2H-tetrazol-5-yl)benzenesulfonamide] | 66.7 | 50 | >200 | 50 | 
2 | NS(=O)(=O)c1c(CCC2CCNCC2)ccc(-c2ccc(C3CNC3)cc2)c1-c1nnn[nH]1 [Example 598, 3-[4-(azetidin-3-yl)phenyl]-6-[2-(4-piperidyl)ethyl]-2-(1H-tetrazol-5-yl)benzenesulfonamide] | 4.41 | 1.563 | 1.563 | 3.125 | 
3 | CS(=O)(=O)NC1CCC(c2cccc(S(N)(=O)=O)c2-c2nn[nH]n2)CC1 (centres unmarked) [Example 169, 3-(4-(methylsulfonamido)cyclohexyl)-2-(2H-tetrazol-5-yl)benzenesulfonamide] |  |  |  |  | IC50 (VIM-1; VIM-1 IC50, fluorescence assay with CCF2-FA substrate): 57.6 nM; Escherichia coli expressing NDM-1 (CLB 30016) MITC95 [1]: 2.344 µM; Klebsiella pneumoniae expressing VIM-1 (IHMA 599644) MITC95 [2]: 50 µM; Serratia marcescens expressing IMP-1 (CL5741) MITC95 [3]: 3.125 µM
4 | Nc1nc2c(-c3ccc(CCC4CCNCC4)c(S(N)(=O)=O)c3-c3nn[nH]n3)cccc2s1 [Example 540, 3-(2-Aminobenzo[d]thiazol-4-yl)-6-(2-(piperidin-4-yl)ethyl)-2-(2H-tetrazol-5-yl)benzenesulfonamide] | 6.7 | 1.563 | 12.5 | 6.25 | 
5 | Cn1ccnc1CN1CCC(c2ccc(-c3cccc(S(N)(=O)=O)c3-c3nnn[nH]3)cc2)CC1 [Example 621, 3-[4-[1-[(1-methylimidazol-2-yl)methyl]-4-piperidyl]phenyl]-2-(1H-tetrazol-5-yl)benzenesulfonamide] | 508 | 3.906 | >200 | 1.563 | 
6 | Cc1cc(N)ncc1-c1ccc(C(F)(F)F)c(S(N)(=O)=O)c1-c1nn[nH]n1 [Example 557, 3-(6-amino-4-methyl-3-pyridyl)-2-(2H-tetrazol-5-yl)-6-(trifluoromethyl)benzenesulfonamide] | 0.656 | 0.3906 | 6.25 | 6.25 | 
7 | Nc1nc2cncc(-c3ccc(C(F)(F)F)c(S(N)(=O)=O)c3-c3nnn[nH]3)c2[nH]1 [Example 571, 3-(2-amino-1H-imidazo[4,5-c]pyridin-7-yl)-2-(1H-tetrazol-5-yl)-6-(trifluoromethyl)benzenesulfonamide] |  | 0.7813 | 6.25 | 3.125 | IC50 (NDM-1; NDM-1 enzyme, CCF2-FA substrate): 1.71 nM; IC50 (IMP-1; IMP-1 enzyme, CCF2-FA substrate): 14.8 nM
8 | NC1CCCC1N1CCC(c2ccc(-c3ccc(C(F)(F)F)c(S(N)(=O)=O)c3-c3nnn[nH]3)cc2)CC1 (centres unmarked) [Example 791, 4′-[1-(2-aminocyclopentyl)piperidin-4-yl]-2-(1H-tetrazol-5-yl)-4-(trifluoromethyl)biphenyl-3-sulfonamide] |  |  |  |  | IC50 (NDM-1; [8]): 6.26 nM; IC50 (IMP-1; [8]): 1.2 nM; Escherichia coli MITC95 ([1]; CLB30016 (NDM-1), 95% inhibition of bacterial growth): 0.7813 µM; Klebsiella pneumoniae MITC95 ([2]; IHMA599644 (VIM-1), 95% inhibition of bacterial growth): 50 µM; Serratia marcescens MITC95 ([3]; CL5741 (IMP-1), 95% inhibition of bacterial growth): 1.563 µM
9 | NS(=O)(=O)c1cccc(CCc2cccnc2)c1-c1nnn[nH]1 [Example 143, 3-(2-pyridin-3-ylethyl)-2-(1H-tetrazol-5-yl)benzenesulfonamide] |  |  |  |  | IC50 (NDM-1; [8]): 20.7 nM; IC50 (IMP-1; [8]): 98.5 nM; Escherichia coli expressing NDM-1 (CLB 30016) MITC95 [1]: 0.7813 µM; Klebsiella pneumoniae expressing VIM-1 (IHMA 599644) MITC95 [2]: 200 µM; Serratia marcescens expressing IMP-1 (CL5741) MITC95 [3]: 4.688 µM
10 | NS(=O)(=O)c1c(C(F)(F)F)ccc(-c2ccc3nccn3c2)c1-c1nnn[nH]1 [Example 481, 3-imidazo[1,2-a]pyridin-6-yl-2-(1H-tetrazol-5-yl)-6-(trifluoromethyl)benzenesulfonamide] |  |  |  |  | IC50 (NDM-1; NDM-1 enzyme, CCF2-FA fluorescence assay): 1.46 nM; IC50 (IMP-1; IMP-1 enzyme, CCF2-FA fluorescence assay): 7.11 nM; Escherichia coli MITC95 ([1]; Escherichia coli expressing NDM-1 (CLB30016), 95% growth inhibition): 0.125 µM; Klebsiella pneumoniae MITC95 ([2]; Klebsiella pneumoniae expressing VIM-1 (IHMA599644), 95% growth inhibition): 1.922 µM; Serratia marcescens MITC95 ([3]; Serratia marcescens expressing IMP-1 (CL5741), 95% growth inhibition): 0.543 µM
